Columns and labels:
[1] = tested on: P. aeruginosa; details: cited from earlier work
[2] = tested on: P. aeruginosa; assay: Mass spectrometry of compound levels in cell-free culture fluid and cell lysate; type: cell-based, Pseudomonas aeruginosa; details: positive control
[3] = tested on: P. aeruginosa; assay: PqsE-dependent pyocyanin production; type: cell-based, Pseudomonas aeruginosa; details: 100 μM, overnight at 37°C, OD695

Question: With `O=C(O)c1ccccc1-c1cccnc1` [Compound C1, 2-(pyridin-3’-yl) benzoic acid] as the molecule, how does the “effect on in vivo pyocyanin production levels” value [1] read?
Answer: does not affect in vivo pyocyanin production levels

Question: For meta-bromo-thiolactone [mBTL], which “concentration in cell lysate over time” value [2] is on record?
Answer: increased

Question: And the “concentration in cell-free culture fluid over time” value [2]?
Answer: progressively decreased

Question: And the “effect on pyocyanin production” value [3]?
Answer: known inhibitor of pyocyanin production
